Data published in ChEMBL document CHEMBL1157881, “Optimization of arylindenopyrimidines as potent adenosine A(2A)/A(1) antagonists” (Bioorg Med Chem Lett, 2010).
Activity calls are given as the source filed them. The calls are words filed in the database; no cut-off is given here.

Key:
[1] = target: Adenosine receptor A2a (Homo sapiens, UniProt P29274); experiment: Antagonistic activity at adenosine A2A receptor; format: functional
[2] = target: T1, Adenosine receptor A1 (Homo sapiens, UniProt P30542); experiment: Antagonistic activity at adenosine A1 receptor; format: functional
T1 sequence (P30542 whole entry): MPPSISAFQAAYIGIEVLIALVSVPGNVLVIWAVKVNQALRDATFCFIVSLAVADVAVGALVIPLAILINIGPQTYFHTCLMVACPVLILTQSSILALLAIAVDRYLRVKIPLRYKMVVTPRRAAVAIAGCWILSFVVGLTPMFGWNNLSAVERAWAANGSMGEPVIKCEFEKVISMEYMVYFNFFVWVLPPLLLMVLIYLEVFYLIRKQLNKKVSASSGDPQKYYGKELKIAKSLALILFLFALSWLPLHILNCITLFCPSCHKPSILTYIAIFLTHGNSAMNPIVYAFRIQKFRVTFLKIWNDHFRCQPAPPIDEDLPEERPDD

[3] = tested on: Mus musculus; experiment: Antagonist activity against haloperidol-induced catalepsy in po dosed mouse; format: functional
[4] = tested on: Mus musculus; experiment: Antagonist activity against haloperidol-induced catalepsy in mouse at 10 mg/kg, po; format: functional, organism-based; design: dose 10 mg/kg
[5] = Cmax in rat brain; format: ADME, organism-based
[6] = tested on: Mus musculus; experiment: Antagonist activity against haloperidol-induced catalepsy in mouse at 3 mg/kg, po; format: functional, organism-based; design: dose 3 mg/kg

Chain of Adenosine receptor A2a (P29274 whole entry): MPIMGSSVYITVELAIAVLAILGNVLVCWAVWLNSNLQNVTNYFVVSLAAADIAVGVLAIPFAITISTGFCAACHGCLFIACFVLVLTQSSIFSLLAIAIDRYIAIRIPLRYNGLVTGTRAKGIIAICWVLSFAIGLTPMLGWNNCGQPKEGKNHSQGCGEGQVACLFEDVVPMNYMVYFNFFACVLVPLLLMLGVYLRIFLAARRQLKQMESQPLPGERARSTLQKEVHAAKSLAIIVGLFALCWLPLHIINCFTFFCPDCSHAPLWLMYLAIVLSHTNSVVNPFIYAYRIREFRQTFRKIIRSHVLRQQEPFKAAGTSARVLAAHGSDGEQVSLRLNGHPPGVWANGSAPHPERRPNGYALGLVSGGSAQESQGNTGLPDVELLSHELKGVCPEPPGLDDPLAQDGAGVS

Ki [1]	Ki [2]	Cmax [5]	Compound	ED50 [3]	Activity [4]	Activity [6]
50.6 nM	414 nM		CCN(CC)CCOc1ccc2c(c1)-c1nc(N)nc(-c3ccc(F)cc3)c1C2=O			
35.1 nM	337 nM		Nc1nc(-c2ccc(F)cc2)c2c(n1)-c1cc(OCCN3C4CCC3CC4)ccc1C2=O		inactive	
0.9 nM	15.4 nM		Nc1nc(-c2ccccc2)c2c(n1)-c1cc(NCCc3ccccn3)ccc1C2=O			
117 nM	600 nM		Nc1nc(-c2ccc(F)cc2)c2c(n1)-c1cc(OCCN3CCCC3)ccc1C2=O	0.8 mg/kg		
32.5 nM	12.3 nM		Nc1nc(-c2ccccc2)c2c(n1)-c1cc(C(=O)N3CCNCC3)ccc1C2=O			
0.9 nM	12.7 nM		Nc1nc(-c2ccccc2)c2c(n1)-c1cc(NCCc3ccncc3)ccc1C2=O			
13.7 nM	187 nM		CC(C)N(CCOc1ccc2c(c1)-c1nc(N)nc(-c3ccccc3)c1C2=O)C(C)C	< 1 mg/kg		
		3.6 µM	Nc1nc(-c2ccccc2)c2c(n1)-c1cc(CN3CCCC3)ccc1C2=O			
18.6 nM	258 nM		CN1CCC(N(C)C(=O)c2ccc3c(c2)-c2nc(N)nc(-c4ccccc4)c2C3=O)CC1	< 1 mg/kg		
20.7 nM	84.1 nM		CC(C)N1CCN(C(=O)c2ccc3c(c2)-c2nc(N)nc(-c4ccccc4)c2C3=O)CC1			
7.9 nM	103 nM		CCN(CC)CCOc1ccc2c(c1)-c1nc(N)nc(-c3ccccc3)c1C2=O	< 1 mg/kg		
4.7 nM	57.3 nM		CN(C)CCN(C)c1ccc2c(c1)-c1nc(N)nc(-c3ccccc3)c1C2=O			
11.1 nM	101 nM		CN1CCN(C(=O)c2ccc3c(c2)-c2nc(N)nc(-c4ccc(F)cc4)c2C3=O)CC1	< 1 mg/kg		
12.4 nM	208 nM		CN(C)CCN(C)C(=O)c1ccc2c(c1)-c1nc(N)nc(-c3ccccc3)c1C2=O	< 1 mg/kg		
32.1 nM	191 nM		CCN1CCN(C(=O)c2ccc3c(c2)-c2nc(N)nc(-c4ccc(F)cc4)c2C3=O)CC1			
37.3 nM	37.4 nM		CN(C)CCOc1ccc2c(c1)-c1nc(N)nc(-c3ccc(F)cc3)c1C2=O			
	48.2 nM	4.1 µM	Nc1nc(-c2ccccc2)c2c(n1)-c1cc(OCCN3CCOCC3)ccc1C2=O	< 1 mg/kg		
76.6 nM	468 nM		CC(C)N(CCOc1ccc2c(c1)-c1nc(N)nc(-c3ccc(F)cc3)c1C2=O)C(C)C			
35.3 nM	194 nM		Nc1nc(-c2ccccc2)c2c(n1)-c1cc(OCCN3CCCCC3)ccc1C2=O			
13.5 nM	45.2 nM		CCN(CC)CCNC(=O)c1ccc2c(c1)-c1nc(N)nc(-c3ccccc3)c1C2=O			
12.5 nM	142 nM		CCN1CCC(Nc2ccc3c(c2)-c2nc(N)nc(-c4ccccc4)c2C3=O)CC1			inactive
		0.6 µM	CN1CCN(C(=O)c2ccc3c(c2)-c2nc(N)nc(-c4ccccc4)c2C3=O)CC1	0.4 mg/kg		
7.8 nM	94.7 nM		CCN(CC)CCN(C)C(=O)c1ccc2c(c1)-c1nc(N)nc(-c3ccccc3)c1C2=O	< 1 mg/kg		
14.9 nM	67.4 nM		CCN1CCN(C(=O)c2ccc3c(c2)-c2nc(N)nc(-c4ccccc4)c2C3=O)CC1	< 1 mg/kg		
18.1 nM	203 nM		Nc1nc(-c2ccc(F)cc2)c2c(n1)-c1cc(OCCN3CCOCC3)ccc1C2=O	< 1 mg/kg		
11.4 nM	256 nM		CCN1CCN(c2ccc3c(c2)-c2nc(N)nc(-c4ccccc4)c2C3=O)CC1	< 1 mg/kg		
17.3 nM	33.3 nM		CN(C)CCOc1ccc2c(c1)-c1nc(N)nc(-c3ccccc3)c1C2=O	< 3 mg/kg		

Compound	Ki [1]	Ki [2]	Cmax [5]	ED50 [3]	Activity [4]	Activity [6]
Nc1nc(-c2ccccc2)c2c(n1)-c1cc(N3CCN(CC4CC4)CC3)ccc1C2=O	23.2 nM	253 nM				
Nc1nc(-c2ccccc2)c2c(n1)-c1cc(NCCN3CCOCC3)ccc1C2=O	4.4 nM	32.7 nM		< 1 mg/kg		
CC(C)N1CCC(NC(=O)c2ccc3c(c2)-c2nc(N)nc(-c4ccccc4)c2C3=O)CC1	16.8 nM	119 nM		0.4 mg/kg		
CN1CCN(c2ccc3c(c2)-c2nc(N)nc(-c4ccccc4)c2C3=O)CC1	2.7 nM	35.6 nM		< 1 mg/kg		
Nc1nc(-c2ccccc2)c2c(n1)-c1cc(N3CCOCC3)ccc1C2=O	2.9 nM	32.4 nM				
CN1CCCN(c2ccc3c(c2)-c2nc(N)nc(-c4ccccc4)c2C3=O)CC1	10 nM	137 nM				
CCN1CCC(N(C)c2ccc3c(c2)-c2nc(N)nc(-c4ccccc4)c2C3=O)CC1	4.9 nM	16.4 nM				
Nc1nc(-c2ccccc2)c2c(n1)-c1cc(OCCN3CCCC3)ccc1C2=O	19.3 nM	159 nM		< 1 mg/kg		
Nc1nc(-c2ccccc2)c2c(n1)-c1cc(NCCN3CCS(=O)(=O)CC3)ccc1C2=O	3.1 nM	46.7 nM				inactive
Nc1nc(-c2ccccc2)c2c(n1)-c1cc(C(=O)NCCN3CCOCC3)ccc1C2=O	28.4 nM	215 nM				
